In patent publication US20230406849A1, “KRAS INHIBITORS FOR TREATMENT OF CANCERS” (TYLIGAND BIOSCIENCE (SHANGHAI) LIMITED, priority 2020, published 2023):
Like-named read-outs stand apart in the source and are kept apart here.

Experiments:
[1] = test system: human non-small cell lung cancer NCI-H358 xenograft; assay: Antitumor activity in NCI-H358 xenograft mouse model; type: in vivo, NPSG mice; settings: for TGI(%) / Tumor volume (mm^3) (day 14): NPSG mice, gavage once daily 10 mg/kg, day 14
Experimental: Tumor growth inhibitory activity of the compounds of the present disclosure was evaluated and verified in a human non-small cell lung cancer NCI-H358 xenograft mouse model.
[Test materials]: NCI-H358 cell line carrying KRAS G12C mutation, provided by KYinno Biotechnology Co., Ltd. (from ATCC, Cat #CRL-5807). NPSG mice, female, provided by Beijing Phenotek Biotechnologies Inc.
[Experimental procedure]: 5×10^6 NCI-H358 cells (containing 50% Matrigel) were inoculated subcutaneously on the right flank of 6-8 weeks old female NPSG mice, with the inoculation volume of 0.1 mL. When the average tumor size reached 160-220 mm^3, the mice were grouped randomly according to tumor size and body weight, upon which the mice were treated with compounds on the same day designated as Day 0. The mice were gavage administrated once daily at 10 mg/kg or solvent control (50 mM citrate buffer containing 10% cyclodextrin, pH5.0). Tumor volume and body weight were measured twice a week during the study. The tumor volume was calculated by the formula V=D×d×d/2, wherein D and d refer to the long and short diameter of the tumor respectively.
In addition, using the same materials and procedures as above, the tumor inhibition activity of Example 9 at different doses in the above-mentioned non-small cell lung cancer mouse model and its effect on body weight were also investigated.

[2] = Cassette pharmacokinetic experiment in rats (IV); type: in vivo; settings: rat, plasma, 1 mg/kg, male SD rats, tail vein IV, 1 mg/mL each compound at 1 mL/kg
Source text: 2.1 Pharmacokinetic Properties of Some Compounds of the Present Disclosure Evaluated by Cassette Pharmacokinetic Experiments in Rats.
[Test materials]: Male SD rats, age: 6-8 weeks, body weight 220-250 g, purchased from Zhaoyan (Suzhou) New Drug Research Center Co., Ltd.; Tolbutamide (Aladdin, Cat #H1401054); Sulfobutyl-(Captisol, Shandong Binzhou Zhiyuan Biological Technology Co., Ltd, Cat #20191013); Propylene glycol (15)-stearate (Solutol, Meilun Bio, Cat #50206A); DMSO (Vetec Company, Cat #WXBD0293V); acetonitrile (Sigma-Aldrich, Cat #WXBD1744V); Methanol (Sigma-Aldrich, Cat #WXBD2831V).
[Experimental procedure]: The compound combination was prepared in a solvent of 5% DMSO/10% Solutol/85% (20% Captisol), and the final concentration of each compound was 1 mg/mL. The SD rats were treated with the compound preparation in 1 mL/kg by tail vein IV injection, and blood samples were collected at the time points of 5 min, 15 min, 30 min, 1 h, 2 h, 4 h, 8 h, and 24 h via external jugular vein puncture, centrifuged at low temperature for 20 minutes to collect plasma samples, which were stored at −80° C. until analysis.
[Sample analysis]: Establishing LC-MS/MS compound analysis method
Standard curve preparation: 20 μL of lmg/mL DMSO stock solution for each compound was aspirated and transferred to […] of 50% methanol working solution, and the resulting solution was serially diluted to obtain a standard curve working solution with concentrations of 20000, 10000, 5000, 1000, 500, 100, 50, 20 and […]. Then 5 µL of this standard curve working solution was mixed with 45 μL rat blank plasma to give a standard curve with concentrations of 2000, 1000, 500, 100, 50, 10, 2 and 1 ng/mL for quantification of unknown samples.
Sample pretreatment: 50 μL of unknown plasma sample or standard curve sample was mixed with 250 μL of acetonitrile containing internal standard as a precipitant. The plasma protein was precipitated, extracted for test compounds, and centrifuged at low temperature for 20 minutes. The supernatant was taken, mixed with 0.1% formic acid aqueous solution, and 5 μL of the resulting solution was aspirated for blood concentration analysis.
[Data processing]: A standard curve was plotted using mass spectrometry software, to quantify unknown samples, and pharmacokinetic parameters are calculated by Winnonlin 8.2 using the drug concentration of unknown samples at each time point.

[3] = test system: human non-small cell lung cancer cells NCI-H358 with KRas G12C mutation; assay: NCI-H358 cell proliferation, CellTiter-Glo Luminescent Cell Viability Assay; type: cell-based; settings: for inhibition at 1 µM: 1 μM compound, read-out: Inhibition rate % (1 μM)
Source text: This assay verified the inhibitory activity of the compounds of the present disclosure on the proliferation of human non-small cell lung cancer cells NCI-H358 with KRas G12C mutation by using Promega's CellTiter-Glo® Luminescent Cell Viability Assay kit.
[Test materials]: NCI-H358 cell line (Cell Resource Center, IBMS, CAMS/PUMC, Item number: 3111C0001CCC000470), 96-well transparent flat-bottomed black-walled cell culture plate (Greiner Bio one, Cat #655096), RPMI-1640 Medium (GE, Cat #SH30809.01), Fetal Bovine Serum FBS (Thermo Fisher, Cat #10099-141), CellTiter-Glo® Luminescent Cell Viability Assay Kit (Promega, Cat #G7573), PBS (Solarbio, Cat #P1020), Trypsin (Thermo Fisher, Cat #25200072), DMSO (Sigma, Cat #D2650), Methyl cellulose (SIGMA, Cat #9004-67-5).
[Experimental procedure]: 180 μL of cell suspension (RPMI1640 solution with 10% FBS and 1% methyl cellulose) was charged to a 96-well cell culture plate at a density of 1500 cells/well. A control group containing no cells, no compounds and only 3D complete medium (RPMI 1640 solution with 1! Methyl cellulose and 10% FBS) (i.e. culture medium control) and a control group containing no compounds but cells (i.e. cell control) were set. AMG510 or the following reference compounds were used as positive controls. The cell plate was placed in a cell incubator overnight. A 10-fold drug solution (RPMI1640 solution with 10% FBS and 1% DMSO) was prepared at a concentration of 10 μM, and 20 μL of this solution was added to each well of the 96-well plate seeded with cells, so that the final concentration of the compounds in each well was 1 μM, and the DMSO concentration […] replicate wells were set up for each compound. The solutions of AMG510 or the following reference compounds were prepared in the same way and added to the positive control wells. The cell plate was placed in a cell incubator and cultured for 120 h. For endpoint detection, the CellTiter-Glo reagent was melted, and the cell plate was moved to room temperature to equilibrate for 30 minutes, added with 100 µL of CellTiter-Glo to each well, and shaken on an orbital shaker for 5 minutes to fully lyse the cells. The plate was kept at room temperature for 20 minutes to stabilize the luminescence signal, and the luminescence value of each well was full wavelength scanned with a multi-functional microplate reader (Molecular Devices, Spectramax M3 microplate reader).
[Test samples] The compounds of Examples 1-39, and reference compound A
[Data Analysis] The following formula was used to calculate the cell inhibition rate under the action of each concentration of the compounds:
Inhibition rate %=[1−(LumDrug to be tested−LumCulture medium control)/(LumCell control−LUMCulture medium control)]×100%
IC50 values were calculated using GraphPad Prism 7.0 software, nonlinear Sigmoidal regression was used to fit the data to obtain a dose-response curve.

Row | SMILES | TGI(%) [1] [%] | Tumor volume (mm^3) (day 14) [1] | AUC(0-t) [2] [ng·h/mL] | clearance [2] [mL/min/kg] | half-life [2] [min] | inhibition at 1 µM ([3]; 120 h) [%] | IC50 ([3]; 120 h, read-out: IC50) [nM] | IC50 ([3]; read-out: IC50 value) [nM] | effect on body weight ([1]; different doses, FIG. 1) | tumor inhibition activity ([1]; different doses, FIG. 1)
1 | C=CC(=O)N1CCN(c2nc(=O)n(-c3c(C)ccnc3C(C)C)c3nc(-c4c(O)cccc4F)c(F)cc23)[C@@H](C)C1 (atropisomer, axis not shown) [AMG510, reference compound] | 66 | 525.1 | 231 | 71.8 | 29.4 |  |  |  |  | 
2 | C=CC(=O)N1CCN(c2c(C#N)cnc3c(F)c(-c4ccc(F)c5sc(N)nc45)c(Cl)cc23)C[C@H]1C [Example 8, 4-((R)-4-acryloyl-3-methylpiperazin-1-yl)-7-(2-amino-7-fluorobenzo[d]thiazol-4-yl)-6-chloro-8-fluoroquinoline-3-carbonitrile] | 67 | 519.2 |  |  |  | 94 | 18 | < 20 |  | 
3 | C=CC(=O)N1CCN(c2c(C#N)cnc3c(F)c(-c4ccc(F)c5sc(N)nc45)c(Cl)cc23)CC1 [Example 9, 4-(4-Acryloylpiperazin-1-yl)-7-(2-amino-7-fluorobenzo[d]thiazol-4-yl)-6-chloro-8-fluoroquinoline-3-carbonitrile] |  |  | 1050 | 15.8 | 40.2 | 98.8 | 8.6 | < 20 | without significant side effects on body weight | excellent tumor inhibition activity
4 | C=CC(=O)N1CCN(c2ncnc3c(F)c(-c4ccc(F)c5sc(N)nc45)c(Cl)cc23)CC1 [Ref. Comp. A, reference compound] |  |  | 623 | 27.1 | 60 | 96.9 | 11 |  |  | 
